According to BindingDB's records for doi:10.1016/s0960-894x(97)10151-2 (Merck, 1999):

molecular target: Endothelin receptor type B (Sus scrofa); assay: Inhibition of [125I]ET1 binding to porcine kidney inner medulla membrane Endothelin B receptor

| Structure (SMILES) | IC50 [nM] |
| --- | --- |
| CCCOc1ccc2c(c1)c(-c1ccc(OC)cc1)c(C(=O)O)n2Cc1ccc2nsnc2c1 [1-Benzo[1,2,5]thiadiazol-5-ylmethyl-3-(4-methoxy-phenyl)-5-propoxy-1H-indole-2-carboxylic acid] | 1200 |
| COc1ccc(-c2c(C(=O)O)c(=O)n(Cc3ccc4c(c3)OCO4)c3c2oc2ccccc23)cc1 [1-Benzo[1,3]dioxol-5-ylmethyl-4-(4-methoxy-phenyl)-2-oxo-1,2-dihydro-benzo[4,5]furo[3,2-b]pyridine-3-carboxylic acid] | 440 |
| COc1ccc(C2(O)OC(=O)C(c3ccc4nsnc4c3)=C2Cc2cc(OC)c(OC)c(OC)c2)cc1 (configuration not stated) [3-Benzo[1,2,5]thiadiazol-5-yl-5-hydroxy-5-(4-methoxy-phenyl)-4-(3,4,5-trimethoxy-benzyl)-5H-furan-2-one] | 340 |
| CCCOc1ccc2c(c1)c(-c1ccc3c(c1)OCO3)c(C(=O)O)n2Cc1ccc2nonc2c1 [3-Benzo[1,3]dioxol-5-yl-1-benzo[1,2,5]oxadiazol-5-ylmethyl-5-propoxy-1H-indole-2-carboxylic acid] | 5300 |
| CN(C)c1cccc2c(S(=O)(=O)Nc3ccc4c(c3)OCO4)cccc12 [5-Dimethylamino-naphthalene-1-sulfonic acid benzo[1,3]dioxol-5-ylamide] | > 10000 |

Second part, the molecule after the results:

| IC50 [nM] | Structure (SMILES) |
| --- | --- |
| 300 | COc1ccc(-c2c(C(=O)O)c(=O)n(Cc3ccc4nsnc4c3)c3c2oc2ccccc23)cc1 [1-Benzo[1,2,5]thiadiazol-5-ylmethyl-4-(4-methoxy-phenyl)-2-oxo-1,2-dihydro-benzo[4,5]furo[3,2-b]pyridine-3-carboxylic acid] |
| 1600 | CCCOc1ccc2c(c1)c(-c1ccc3c(c1)OCO3)c(C(=O)O)n2Cc1ccc2c(c1)OCO2 [3-Benzo[1,3]dioxol-5-yl-1-benzo[1,3]dioxol-5-ylmethyl-5-propoxy-1H-indole-2-carboxylic acid] |
